US20050004092A1, “Penem derivatives and antimicrobial agent containing the same” (DAIICHI SUNTORY PHARMA CO., LTD., priority 1995, published 2005)
≈ marks a conversion by molar mass, not a printed value. Like-named read-outs stand apart in the source and are kept apart here.

Tests used:
Test in all cases: antibacterial activity (MIC), standard in vitro dilution test
[1] = tested on: MRSA 31 high-resist. (IPM resist.); assay type: cell-based, Staphylococcus aureus; details: Staphylococcus aureus, MRSA, read-out: MIC, MRSA 31 high-resist. (IPM resist.)
Excerpt: (§1) With respect to certain compounds (I) of the present invention, their general antibacterial activities and their antibacterial activities (MIC) against various methicillin-resistant strains of Staphylococcus aureus (methicillin-resistant Staphylococcus aureus: MRSA) were investigated. The results will be shown next.
(§2) Of the investigations, the general antibacterial activities were investigated by a standard in vitro dilution test.
(§3) As test bacteria, Staphylococcus aureus 209P JC-1, Escherichia coli NIHJ JC-2 and MRSAs were used.

[2] = tested on: MRSA 33 high-resist. (IPM resist.); assay type: cell-based, Staphylococcus aureus; details: Staphylococcus aureus, MRSA, read-out: MIC, MRSA 33 high-resist. (IPM resist.)
Excerpt: as §1, §2, §3

[3] = tested on: Escherichia coli NIHJ JC-2 strain; assay type: cell-based; details: Escherichia coli
Excerpt: as §1, §2, §3

[4] = tested on: Staphylococcus aureus 209P JC-1 strain; assay type: cell-based; details: Staphylococcus aureus, 209P, read-out: MIC, Staphylococcus aureus 209P JC-1 strain
Excerpt: as §1, §2, §3

[5] = test bacterium strain 10^5 cfu/ml
[6] = NIHJJC2, test bacterium strain 10^5 cfu/ml, read-out: MIC, Escherichia coli NIHJ JC-2 strain

Row | MIC [1, 5] [µg/mL] | MIC [2, 5] [µg/mL] | MIC [3, 6] [µg/mL] | MIC [4, 5] [µg/mL] | Compound | MIC [1] [µg/mL] | MIC [2] [µg/mL] | MIC ([3]; NIHJJC2, read-out: MIC, Escherichia coli NIHJ JC-2 strain) [µg/mL] | MIC [4] [µg/mL]
1 | 3.13 (≈ 8.43 µM) | 3.13 (≈ 8.43 µM) | 0.39 (≈ 1.05 µM) | 0.1 (≈ 0.269 µM) | CC[C@H](O)[C@@H]1C(=O)N2C(C(=O)O)=C(S[C@H]3CCN(C(C)=N)C3)S[C@H]12 [Ex. 103, (5R,6R)-2-((S)-1-(1-iminoethyl)-pyrrolidin-3-yl)thio-6-((S)-1-hydroxypropyl)-penem-3-carboxylic acid] |  |  |  | 
2 | 6.25 (≈ 13.9 µM) | 6.25 (≈ 13.9 µM) | 12.5 (≈ 27.7 µM) | 0.1 (≈ 0.222 µM) | CC[C@H](O)[C@@H]1C(=O)N2C(C(=O)O)=C(S[C@H]3CCN(CCOc4ccccc4)C3)S[C@H]12 [Ex. 210] |  |  |  | 
3 | 6.25 (≈ 14.8 µM) | 6.25 (≈ 14.8 µM) | 3.13 (≈ 7.43 µM) | 0.2 (≈ 0.474 µM) | CC[C@H](O)[C@@H]1C(=O)N2C(C(=O)O)=C(S[C@H]3CCN(Cc4ccccn4)C3)S[C@H]12 [Ex. 123, (5R,6R)-6-((S)-1-hydroxypropyl)-2-((S)-1-(2-pyridylmethyl)pyrrolidin-3-yl)thiopenem-3-carboxylic acid] |  |  |  | 
4 |  |  |  |  | CC[C@H](O)[C@@H]1C(=O)N2C(C(=O)O)=C(S[C@H]3CCN(C(C)C(=O)c4ccccc4)C3)S[C@H]12 (some centres unmarked) [Ex. 117] | 6.25 (≈ 13.5 µM) | 6.25 (≈ 13.5 µM) | 1.56 (≈ 3.37 µM) | 0.1 (≈ 0.216 µM)
5 | 3.13 (≈ 7.44 µM) | 3.13 (≈ 7.44 µM) | 3.13 (≈ 7.44 µM) | 0.1 (≈ 0.238 µM) | CC[C@H](O)[C@]1(C(=O)O)C(=O)N2C=C(S[C@H]3CCN(Cc4ccccc4)C3)S[C@@H]21 [Ex. 44, (5R,6R)-2-((S)-1-benzylpyrrolidin-3-yl)thio-6-((S)-1-hydroxypropyl)penem-6-carboxylic acid] |  |  |  | 
6 | 3.13 (≈ 7.68 µM) | 3.13 (≈ 7.68 µM) | 0.78 (≈ 1.91 µM) | 0.05 (≈ 0.123 µM) | CC[C@H](O)[C@@H]1C(=O)N2C(C(=O)O)=C(S[C@H]3CCN(c4ccncc4)C3)S[C@H]12 [Ex. 203] |  |  |  | 
7 | 6.25 (≈ 15.3 µM) | 6.25 (≈ 15.3 µM) | 1.56 (≈ 3.83 µM) | 0.1 (≈ 0.245 µM) | CC[C@H](O)[C@@H]1C(=O)N2C(C(=O)O)=C(SCCNC(=N)c3ccccc3)S[C@H]12 [Ex. 132, (5R,6R)-2-(2-(α-iminobenzyl)-aminoethyl)thio-6-((S)-1-hydroxypropyl)penem-3-carboxylic acid] |  |  |  | 
8 | 6.25 (≈ 13.4 µM) | 6.25 (≈ 13.4 µM) | 0.78 (≈ 1.67 µM) | 0.1 (≈ 0.214 µM) | CC[C@H](O)[C@@H]1C(=O)N2C(C(=O)O)=C(S[C@H]3CCN(CC(=O)c4ccc(F)cc4)C3)S[C@H]12 [Ex. 112, (5R,6R)-2-((S)-1-(2-p-fluorophenyl-2-oxoethyl)pyrrolidin-3-yl)thio-6-((S)-1-hydroxypropyl)penem-3-carboxylic acid] |  |  |  | 
9 | 6.25 (≈ 13.5 µM) | 6.25 (≈ 13.5 µM) | 0.39 (≈ 0.843 µM) | 0.2 (≈ 0.432 µM) | CC[C@H](O)[C@@H]1C(=O)N2C(C(=O)O)=C(SC3CCN(CC(=O)c4ccccc4C)C3)S[C@H]12 (some centres unmarked) [Ex. 226] |  |  |  | 
10 | 6.25 (≈ 13.9 µM) | 6.25 (≈ 13.9 µM) | 1.56 (≈ 3.46 µM) | 0.1 (≈ 0.222 µM) | CC[C@H](O)[C@@H]1C(=O)N2C(C(=O)O)=C(S[C@H]3CCN(C[C@@H](O)c4ccccc4)C3)S[C@H]12 [Ex. 107, (5R,6R)-6-((S)-1-hydroxypropyl)-2-(1-((S)-2-hydroxy-2-phenylethyl)pyrrolidin-3-yl)thiopenem-3-carboxylic acid] |  |  |  | 
11 | 6.25 (≈ 14.3 µM) | 6.25 (≈ 14.3 µM) | 0.78 (≈ 1.79 µM) | 0.1 (≈ 0.229 µM) | CC[C@H](O)[C@@H]1C(=O)N2C(C(=O)O)=C(SCCN(C)CC(=O)c3ccccc3)S[C@H]12 [Ex. 142, (5R,6R)-6-((S)-1-hydroxypropyl)-2-(2-(N-methyl-N-phenacylamino)ethyl)thiopenem-3-carboxylic acid] |  |  |  | 
12 | 6.25 (≈ 17.7 µM) | 6.25 (≈ 17.7 µM) | 6.25 (≈ 17.7 µM) | 0.2 (≈ 0.567 µM) | CC[C@H](O)[C@@H]1C(=O)N2C(C(=O)O)=C(SCc3ccccn3)S[C@H]12 [Ex. 129, (5R,6R)-6-((S)-1-hydroxypropyl)-2-(2-pyridylmethyl)thiopenem-3-carboxylic acid] |  |  |  | 
13 | 6.25 (≈ 13.1 µM) | 6.25 (≈ 13.1 µM) | 0.2 (≈ 0.418 µM) | 0.2 (≈ 0.418 µM) | CC[C@H](O)[C@@H]1C(=O)N2C(C(=O)O)=C(S[C@H]3CCN(CC(=O)c4ccc(OC)cc4)C3)S[C@H]12 [Ex. 114, (5R,6R)-6-((S)-1-hydroxypropyl)-2-((S)-1-(2-p-methoxyphenyl-2-oxoethyl)pyrrolidin-3-yl)thiopenem-3-carboxylic acid] |  |  |  | 
14 | 6.25 (≈ 13.5 µM) | 6.25 (≈ 13.5 µM) | 0.39 (≈ 0.843 µM) | 0.1 (≈ 0.216 µM) | CC[C@H](O)[C@@H]1C(=O)N2C(C(=O)O)=C(S[C@H]3CCN(CC(=O)c4ccc(C)cc4)C3)S[C@H]12 [Ex. 113, (5R,6R)-6-((S)-1-hydroxypropyl)-2-((S)-1-(2-oxo-2-p-tolylethyl)pyrrolidin-3-yl)-thiopenem-3-carboxylic acid] |  |  |  | 
15 | 6.25 (≈ 14 µM) | 3.13 (≈ 7.01 µM) | 6.25 (≈ 14 µM) | 0.1 (≈ 0.224 µM) | CC[C@H](O)[C@@H]1C(=O)N2C(C(=O)O)=C(S[C@H]3CCN(C4Cc5ccccc5C4)C3)S[C@H]12 [Ex. 214] |  |  |  | 
16 | 1.56 (≈ 4.13 µM) | 1.56 (≈ 4.13 µM) | 12.5 (≈ 33.1 µM) | 0.05 (≈ 0.132 µM) | CC[C@H](O)[C@@H]1C(=O)N2C(C(=O)O)=C(SC3Cc4ccccc4C3)S[C@H]12 [Ex. 225] |  |  |  | 
17 | 3.13 (≈ 8.83 µM) | 3.13 (≈ 8.83 µM) | 6.25 (≈ 17.6 µM) | 0.2 (≈ 0.564 µM) | CC[C@H](O)[C@@H]1C(=O)N2C(C(=O)O)=C(SCCn3cccc3)S[C@H]12 [Ex. 147, (5R,6R)-6-((S)-1-hydroxypropyl)-2-(2-(1-pyrrolyl)ethyl)thiopenem-3-carboxylic acid] |  |  |  | 
18 | 6.25 (≈ 16.2 µM) | 6.25 (≈ 16.2 µM) | 1.56 (≈ 4.05 µM) | 0.2 (≈ 0.519 µM) | CCC(=N)N1CC[C@H](SC2=C(C(=O)O)N3C(=O)[C@@H]([C@@H](O)CC)[C@H]3S2)C1 [Ex. 250] |  |  |  | 
19 | 0.78 (≈ 2.07 µM) | 1.56 (≈ 4.14 µM) | 12.5 (≈ 33.2 µM) | 0.1 (≈ 0.266 µM) | CC[C@H](O)[C@@H]1C(=O)N2C(C(=O)O)=C(SCc3ccc(C#N)cc3)S[C@H]12 [Ex. 239] |  |  |  | 
20 | 6.25 (≈ 15.3 µM) | 6.25 (≈ 15.3 µM) | 12.5 (≈ 30.6 µM) | 0.39 (≈ 0.955 µM) | CC[C@H](O)[C@@H]1C(=O)N2C(C(=O)O)=C(SCCC(=O)Nc3ccccc3)S[C@H]12 [Ex. 134, (5R,6R)-6-((S)-1-hydroxypropyl)-2-(2-phenylaminocarbonylethyl)thiopenem-3-carboxylic acid] |  |  |  | 
21 | 6.25 (≈ 20.5 µM) | 6.25 (≈ 20.5 µM) | 0.73 (≈ 2.4 µM) | 0.1 (≈ 0.329 µM) | CC[C@H](O)[C@@H]1C(=O)N2C(C(=O)O)=C(SCCN)S[C@H]12 [Ex. 140, (5R,6R)-2-(2-aminoethyl)thio-6-((S)-1-hydroxypropyl)penem-3-carboxylic acid] |  |  |  | 
22 | 6.25 (≈ 13.9 µM) | 6.25 (≈ 13.9 µM) | 1.56 (≈ 3.48 µM) | 0.2 (≈ 0.446 µM) | CC[C@H](O)[C@@H]1C(=O)N2C(C(=O)O)=C(S[C@H]3CCN(C(=N)Nc4ccccc4)C3)S[C@H]12 [Ex. 243] |  |  |  | 
23 | 3.13 (≈ 8.76 µM) | 3.13 (≈ 8.76 µM) | 0.78 (≈ 2.18 µM) | 0.1 (≈ 0.28 µM) | CC[C@H](O)[C@@H]1C(=O)N2C(C(=O)O)=C(SC3CN(C(C)=N)C3)S[C@H]12 [Ex. 255] |  |  |  | 
